Reference: patent US20260125366A1, “METHODS FOR TREATING CANCER” (SCORPION THERAPEUTICS, INC., priority 2022, published 2026)
pIC50: −log10 of the molar value.

Target: PI3Kα H1047R (Homo sapiens, UniProt P42336, H1047R)
Experiment: ADP-Glo assay
Format: biochemical
Conditions: 2 nM H1047R enzyme; 1 hour incubation with compound at room temperature; ATPase reaction 100 min
Method: Compounds were plated using acoustic liquid dispensing on the Echo 655T by transferring 50 nL/well compound DMSO solution from an Echo source plate to a 384-well assay plate to generate a 10-point dose response curve with a top final concentration of […], 1:3 serial dilution down; the same volume of DMSO was dispensed to wells designated as positive and negative controls. On the day of the assay, a 2X enzyme solution in the assay buffer (50 mM Tris, 150 mM NaCl, 0.01% Brij35, 15 mM MgCl2, 0.05% Tween-20, and 1 mM DTT) was prepared. The enzyme concentrations used were: 20 nM for wild-type, 2 nM for H1047R and H1047L, and 10 nM for H1047Y proteins. 2.5 µL/well of 2X enzyme solution was dispensed into the assay plates and the enzyme was incubated with the test compound at room temperature for 1 hour; the same volume of assay buffer without enzyme was dispensed to wells designated as positive controls. At the end of the incubation, 2.5 µL/well of 2X ATP solution in assay buffer was dispensed to initiate the ATPase reaction and incubated at room temperature for 100 min. Reactions were terminated and ADP production measured using the ADP-Glo kit following instructions from the manufacturer.
The IC50(nM) ranges are as follows: A denotes <200 nM; B denotes 200 nM≤IC50<500 nM; C denotes ≥500 nM. ND denotes value not determined with that assay for the specified compound.

PI3Kα H1047R, sequence (P42336 whole entry H1047R): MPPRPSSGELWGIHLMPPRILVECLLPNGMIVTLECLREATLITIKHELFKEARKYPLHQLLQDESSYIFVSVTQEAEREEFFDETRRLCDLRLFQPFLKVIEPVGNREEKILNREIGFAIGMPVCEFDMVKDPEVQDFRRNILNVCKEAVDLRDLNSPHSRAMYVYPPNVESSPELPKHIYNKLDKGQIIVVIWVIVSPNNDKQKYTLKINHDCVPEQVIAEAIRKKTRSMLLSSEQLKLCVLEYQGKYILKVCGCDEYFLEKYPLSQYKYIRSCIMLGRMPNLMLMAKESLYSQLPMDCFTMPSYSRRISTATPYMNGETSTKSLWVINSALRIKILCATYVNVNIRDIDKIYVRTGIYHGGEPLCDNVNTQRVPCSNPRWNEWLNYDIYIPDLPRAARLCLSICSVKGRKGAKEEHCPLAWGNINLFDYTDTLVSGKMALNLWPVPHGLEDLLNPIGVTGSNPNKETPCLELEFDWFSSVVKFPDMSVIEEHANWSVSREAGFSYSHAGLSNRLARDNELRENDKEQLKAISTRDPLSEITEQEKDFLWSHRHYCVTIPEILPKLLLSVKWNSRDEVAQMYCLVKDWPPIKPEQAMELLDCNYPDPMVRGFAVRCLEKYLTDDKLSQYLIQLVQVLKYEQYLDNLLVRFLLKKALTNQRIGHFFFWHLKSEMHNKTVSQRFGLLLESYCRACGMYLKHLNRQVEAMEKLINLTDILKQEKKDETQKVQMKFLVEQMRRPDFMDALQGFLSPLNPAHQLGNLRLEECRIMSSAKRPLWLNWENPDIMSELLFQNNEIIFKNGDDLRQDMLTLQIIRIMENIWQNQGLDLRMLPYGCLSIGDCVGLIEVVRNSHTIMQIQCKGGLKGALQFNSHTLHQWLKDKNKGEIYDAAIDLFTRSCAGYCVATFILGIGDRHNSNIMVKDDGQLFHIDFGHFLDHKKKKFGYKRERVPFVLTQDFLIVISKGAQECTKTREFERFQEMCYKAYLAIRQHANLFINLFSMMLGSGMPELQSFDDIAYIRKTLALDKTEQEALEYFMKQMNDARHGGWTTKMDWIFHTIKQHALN
PI3Kα H1047R, sequence (P27986 whole entry partner): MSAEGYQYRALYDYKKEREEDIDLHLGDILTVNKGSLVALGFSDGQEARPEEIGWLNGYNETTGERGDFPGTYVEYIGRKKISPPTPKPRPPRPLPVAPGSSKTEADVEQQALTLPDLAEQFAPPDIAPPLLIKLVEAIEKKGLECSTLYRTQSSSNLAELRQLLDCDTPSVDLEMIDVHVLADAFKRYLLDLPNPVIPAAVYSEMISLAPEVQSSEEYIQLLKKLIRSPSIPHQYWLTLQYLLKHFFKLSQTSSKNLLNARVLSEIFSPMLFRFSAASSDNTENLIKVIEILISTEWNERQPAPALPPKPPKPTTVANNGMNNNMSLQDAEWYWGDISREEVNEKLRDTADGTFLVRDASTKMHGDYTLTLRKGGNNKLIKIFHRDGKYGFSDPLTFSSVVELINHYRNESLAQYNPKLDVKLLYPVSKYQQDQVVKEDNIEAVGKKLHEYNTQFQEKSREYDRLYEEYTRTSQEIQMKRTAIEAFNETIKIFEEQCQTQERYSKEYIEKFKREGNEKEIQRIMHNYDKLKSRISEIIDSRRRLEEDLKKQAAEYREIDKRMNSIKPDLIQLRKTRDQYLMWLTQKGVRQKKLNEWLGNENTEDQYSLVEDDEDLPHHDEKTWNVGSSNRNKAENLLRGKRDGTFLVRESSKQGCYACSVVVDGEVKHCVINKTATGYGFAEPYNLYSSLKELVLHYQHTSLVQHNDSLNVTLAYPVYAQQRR

Row | Compound | pIC50
1 | Cc1c([C@@H](NC(=O)Nc2cnc(N)nc2)C(F)(F)F)nn2ccccc12 (racemic) [Compound 5] | ≤ 6.30
2 | CC(C)C(NC(=O)Nc1cnc(N)nc1)c1cc2ccc(F)cc2n1C (stereo not shown) [Compound 2, 1-(2-aminopyrimidin-5-yl)-3-[1-(6-fluoro-1-methylindol-2-yl)-2-methylpropyl]urea] | > 6.70
3 | Cn1c([C@@H](NC(=O)Nc2cnc(N)nc2)C(F)(F)F)cc2c(F)cc(F)cc21 (racemic) [Compound 9] | > 6.70
4 | Cc1c([C@@H](NC(=O)Nc2cnc(N)nc2)C(F)(F)F)nc2ccc(F)cn12 (racemic) [Compound 11] | ≤ 6.30
5 | Cc1c([C@@H](NC(=O)Nc2cnc(N)nc2)C(F)(F)F)n(C)c2c(F)cc(F)cc12 [Compound 3, 1-(2-aminopyrimidin-5-yl)-3-[(1R)-1-(5,7-difluoro-1,3-dimethylindol-2-yl)-2,2,2-trifluoroethyl]ureas] | 6.30 to 6.70
6 | Cn1c([C@@H](NC(=O)Nc2cnc(N)nc2)C(F)(F)F)nc2c(F)cc(F)cc21 (racemic) [Compound 7] | > 6.70
7 | Cn1c(C(NC(=O)Nc2cnc(N)nc2)C(F)(F)F)cc2ccc(F)cc21 (stereo not shown) [Compound 1, 1-(2-aminopyrimidin-5-yl)-3-[2,2,2-trifluoro-1-(6-fluoro-1-methylindol-2-yl)ethyl]urea] | > 6.70
